In the supplement of paper PMC4858399:

What was measured:
Conditions in all cases: exposure time 48 h
[1] = test system: Caenorhabditis elegans N2; assay: lowest effective concentration for larval growth inhibition (size below effect threshold); higher = less potent
Summary of the method: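 L1 larvae of C. elegans N2 (50 per 96-well) were grown in K-medium with killed bacteria and 1% DMSO, with the chemical at 0.5, 1, 5, 10, 50, 100 or 200 µM, for 48 h at 20°C. Per-worm extinction from the Biosort stood for size and was log-transformed into well means. For each chemical, the lowest effective concentration is the first dose where plate-adjusted mean size falls under the threshold and stays under it at the higher doses, using a threshold of 5.665.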

[2] = test system: Caenorhabditis elegans N2; assay: AC50 for larval growth inhibition (Hill fit); higher = less potent
Summary of the method: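 After 48 h at 20°C in K-medium with killed OP50, 1% DMSO and 0.5–200 µM chemical, synchronised C. elegans N2 L1 larvae (50 per well, 96-well plates) were sized individually as extinction on a COPAS Biosort. These values were log-transformed and averaged per well, and wells with fewer than 10 worms were excluded. The AC50 was derived from a constrained Hill fit by weighted genetic-algorithm regression, and out-of-range values are censored.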

[3] = test system: Caenorhabditis elegans N2; assay: mean nematode size ln(EXT) after 48 h, plate-adjusted (DMSO control set to 6) (ln(EXT), control-adjusted); higher = larger nematodes / less growth inhibition
Summary of the method: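 Worms were measured individually for extinction on the Biosort after 48 h at 20°C. They began as synchronised C. elegans N2 L1 larvae in K-medium with killed OP50, 1% DMSO and 0.5–200 µM chemical. Once debris had been removed by a growth model, values were natural-logged and averaged per well to give mean size. The plate adjustment subtracted the vehicle control mean and added 6.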

With CC(C)(C)c1cccc(C(C)(C)C)c1O [2,6-Di-tert-butylphenol] the lowest effective concentration [1] was 200 µM, the “AC50 for larval growth inhibition” value [2] was over 200 µM and the “mean nematode size ln(EXT) (ln)” value ([3]; 0.5 µM) was 6.07. The “mean nematode size ln(EXT) (ln)” value ([3]; 1 µM) was 5.99, the “mean nematode size ln(EXT) (ln)” value ([3]; 5 µM) was 6.03 and the “mean nematode size ln(EXT) (ln)” value ([3]; 10 µM) was 6.07. For the same compound, the “mean nematode size ln(EXT) (ln)” value ([3]; 50 µM) was 5.91, the “mean nematode size ln(EXT) (ln)” value ([3]; 100 µM) was 5.88 and the “mean nematode size ln(EXT) (ln)” value ([3]; 200 µM) was 5.19.
For Oc1cccc2cccnc12 [8-Hydroxyquinoline], the lowest effective concentration [1] was 200 µM, the “AC50 for larval growth inhibition” value [2] was over 200 µM and the “mean nematode size ln(EXT) (ln)” value ([3]; 0.5 µM) was 5.89. For the same compound, the “mean nematode size ln(EXT) (ln)” value ([3]; 1 µM) was 5.92, the “mean nematode size ln(EXT) (ln)” value ([3]; 5 µM) was 5.91 and the “mean nematode size ln(EXT) (ln)” value ([3]; 10 µM) was 5.83. The “mean nematode size ln(EXT) (ln)” value ([3]; 50 µM) was 5.78, the “mean nematode size ln(EXT) (ln)” value ([3]; 100 µM) was 5.72 and the “mean nematode size ln(EXT) (ln)” value ([3]; 200 µM) was 5.56.
In the case of CC(C)N(C(=O)SCC(Cl)=C(Cl)Cl)C(C)C [Tri-allate], the lowest effective concentration [1] is reported as 50 µM, the “AC50 for larval growth inhibition” value [2] is reported as 86.7 µM and the “mean nematode size ln(EXT) (ln)” value ([3]; 0.5 µM) is reported as 5.72. The “mean nematode size ln(EXT) (ln)” value ([3]; 1 µM) was 5.91, the “mean nematode size ln(EXT) (ln)” value ([3]; 5 µM) was 5.86 and the “mean nematode size ln(EXT) (ln)” value ([3]; 10 µM) was 5.9. The “mean nematode size ln(EXT) (ln)” value ([3]; 50 µM) was 5.39, the “mean nematode size ln(EXT) (ln)” value ([3]; 100 µM) was 4.62 and the “mean nematode size ln(EXT) (ln)” value ([3]; 200 µM) was 3.99.
In the case of OC(Cn1cncn1)(Cn1cncn1)c1ccc(F)cc1F [Fluconazole], the lowest effective concentration [1] is reported as 200 µM, the “AC50 for larval growth inhibition” value [2] is reported as over 200 µM and the “mean nematode size ln(EXT) (ln)” value ([3]; 0.5 µM) is reported as 6.08. The “mean nematode size ln(EXT) (ln)” value ([3]; 1 µM) was 6.04, the “mean nematode size ln(EXT) (ln)” value ([3]; 5 µM) was 6.06 and the “mean nematode size ln(EXT) (ln)” value ([3]; 10 µM) was 6.09. For the same compound, the “mean nematode size ln(EXT) (ln)” value ([3]; 50 µM) was 6.01, the “mean nematode size ln(EXT) (ln)” value ([3]; 100 µM) was 5.99 and the “mean nematode size ln(EXT) (ln)” value ([3]; 200 µM) was 5.56.
CC(C)c1cccc(C(C)C)c1 [1,3-Diisopropylbenzene] was tested, and the lowest effective concentration [1] was 200 µM, the “AC50 for larval growth inhibition” value [2] was 175 µM and the “mean nematode size ln(EXT) (ln)” value ([3]; 0.5 µM) was 6.02. The “mean nematode size ln(EXT) (ln)” value ([3]; 1 µM) was 5.98, the “mean nematode size ln(EXT) (ln)” value ([3]; 5 µM) was 5.99 and the “mean nematode size ln(EXT) (ln)” value ([3]; 10 µM) was 6.07. The “mean nematode size ln(EXT) (ln)” value ([3]; 50 µM) was 6.21, the “mean nematode size ln(EXT) (ln)” value ([3]; 100 µM) was 6.12 and the “mean nematode size ln(EXT) (ln)” value ([3]; 200 µM) was 5.46.
With CCOP(=S)(OCC)Oc1nc(Cl)c(Cl)cc1Cl [Chlorpyrifos] the lowest effective concentration [1] was at most 0.5 µM, the “AC50 for larval growth inhibition” value [2] was 2.28 µM and the “mean nematode size ln(EXT) (ln)” value ([3]; 0.5 µM) was 5.55. The “mean nematode size ln(EXT) (ln)” value ([3]; 1 µM) was 5.06, the “mean nematode size ln(EXT) (ln)” value ([3]; 5 µM) was 4.29 and the “mean nematode size ln(EXT) (ln)” value ([3]; 10 µM) was 3.42. For the same compound, the “mean nematode size ln(EXT) (ln)” value ([3]; 50 µM) was 3.29, the “mean nematode size ln(EXT) (ln)” value ([3]; 100 µM) was 3.43 and the “mean nematode size ln(EXT) (ln)” value ([3]; 200 µM) was 3.06.
With OC(c1ccc(Cl)cc1)(c1cncnc1)c1ccccc1Cl (configuration not stated) [Fenarimol] the lowest effective concentration [1] was 50 µM, the “AC50 for larval growth inhibition” value [2] was 59.8 µM and the “mean nematode size ln(EXT) (ln)” value ([3]; 0.5 µM) was 6.14. For the same compound, the “mean nematode size ln(EXT) (ln)” value ([3]; 1 µM) was 6.17, the “mean nematode size ln(EXT) (ln)” value ([3]; 5 µM) was 6.07 and the “mean nematode size ln(EXT) (ln)” value ([3]; 10 µM) was 5.92. For the same compound, the “mean nematode size ln(EXT) (ln)” value ([3]; 50 µM) was 5.21, the “mean nematode size ln(EXT) (ln)” value ([3]; 100 µM) was 3.58 and the “mean nematode size ln(EXT) (ln)” value ([3]; 200 µM) was 3.32.
In the case of c1ccc2cc3ccccc3cc2c1 [Anthracene], the lowest effective concentration [1] is reported as 5 µM, the “AC50 for larval growth inhibition” value [2] is reported as 2.12 µM and the “mean nematode size ln(EXT) (ln)” value ([3]; 0.5 µM) is reported as 5.97. The “mean nematode size ln(EXT) (ln)” value ([3]; 1 µM) was 5.76, the “mean nematode size ln(EXT) (ln)” value ([3]; 5 µM) was 4.34 and the “mean nematode size ln(EXT) (ln)” value ([3]; 10 µM) was 3.78. The “mean nematode size ln(EXT) (ln)” value ([3]; 50 µM) was 4.06, the “mean nematode size ln(EXT) (ln)” value ([3]; 100 µM) was 4.36 and the “mean nematode size ln(EXT) (ln)” value ([3]; 200 µM) was 4.12.
For CCc1cccc(C)c1N(C(=O)CCl)C(C)COC (configuration not stated) [Metolachlor], the lowest effective concentration [1] was 50 µM, the “AC50 for larval growth inhibition” value [2] was over 200 µM and the “mean nematode size ln(EXT) (ln)” value ([3]; 0.5 µM) was 5.64. For the same compound, the “mean nematode size ln(EXT) (ln)” value ([3]; 1 µM) was 5.7, the “mean nematode size ln(EXT) (ln)” value ([3]; 5 µM) was 5.74 and the “mean nematode size ln(EXT) (ln)” value ([3]; 10 µM) was 5.81. The “mean nematode size ln(EXT) (ln)” value ([3]; 50 µM) was 5.63, the “mean nematode size ln(EXT) (ln)” value ([3]; 100 µM) was 5.63 and the “mean nematode size ln(EXT) (ln)” value ([3]; 200 µM) was 5.64.
In the case of N#Cc1cccnc1 [3-Pyridinecarbonitrile], the lowest effective concentration [1] is reported as 5 µM, the “AC50 for larval growth inhibition” value [2] is reported as 18.2 µM and the “mean nematode size ln(EXT) (ln)” value ([3]; 0.5 µM) is reported as 5.73. For the same compound, the “mean nematode size ln(EXT) (ln)” value ([3]; 1 µM) was 5.78, the “mean nematode size ln(EXT) (ln)” value ([3]; 5 µM) was 5.61 and the “mean nematode size ln(EXT) (ln)” value ([3]; 10 µM) was 5.65. For the same compound, the “mean nematode size ln(EXT) (ln)” value ([3]; 50 µM) was 5.65, the “mean nematode size ln(EXT) (ln)” value ([3]; 100 µM) was 5.65 and the “mean nematode size ln(EXT) (ln)” value ([3]; 200 µM) was 5.54.
CC(C)(c1ccccc1)c1ccc(O)c(C(C)(C)c2ccccc2)c1 [2,4-Bis(alpha,alpha-dimethylbenzyl)phenol] was tested, and the lowest effective concentration [1] was 10 µM, the “AC50 for larval growth inhibition” value [2] was 58.7 µM and the “mean nematode size ln(EXT) (ln)” value ([3]; 0.5 µM) was 6. The “mean nematode size ln(EXT) (ln)” value ([3]; 1 µM) was 5.67, the “mean nematode size ln(EXT) (ln)” value ([3]; 5 µM) was 5.74 and the “mean nematode size ln(EXT) (ln)” value ([3]; 10 µM) was 5.45. The “mean nematode size ln(EXT) (ln)” value ([3]; 50 µM) was 4.67, the “mean nematode size ln(EXT) (ln)” value ([3]; 100 µM) was 4.3 and the “mean nematode size ln(EXT) (ln)” value ([3]; 200 µM) was 3.8.
With CCN(CC)c1nc(C)cc(OP(=S)(OC)OC)n1 [Pirimiphos-methyl] the lowest effective concentration [1] was 200 µM, the “AC50 for larval growth inhibition” value [2] was 124 µM and the “mean nematode size ln(EXT) (ln)” value ([3]; 0.5 µM) was 5.93. For the same compound, the “mean nematode size ln(EXT) (ln)” value ([3]; 1 µM) was 5.93, the “mean nematode size ln(EXT) (ln)” value ([3]; 5 µM) was 5.83 and the “mean nematode size ln(EXT) (ln)” value ([3]; 10 µM) was 5.92. For the same compound, the “mean nematode size ln(EXT) (ln)” value ([3]; 50 µM) was 6.01, the “mean nematode size ln(EXT) (ln)” value ([3]; 100 µM) was 6.01 and the “mean nematode size ln(EXT) (ln)” value ([3]; 200 µM) was 4.12.
With Clc1ccc(C(Cl)(Cl)Cl)cc1 [4-Chlorobenzotrichloride] the lowest effective concentration [1] was 50 µM, the “AC50 for larval growth inhibition” value [2] was 112 µM and the “mean nematode size ln(EXT) (ln)” value ([3]; 0.5 µM) was 5.94. The “mean nematode size ln(EXT) (ln)” value ([3]; 1 µM) was 5.93, the “mean nematode size ln(EXT) (ln)” value ([3]; 5 µM) was 5.97 and the “mean nematode size ln(EXT) (ln)” value ([3]; 10 µM) was 5.9. For the same compound, the “mean nematode size ln(EXT) (ln)” value ([3]; 50 µM) was 5.65, the “mean nematode size ln(EXT) (ln)” value ([3]; 100 µM) was 4.93 and the “mean nematode size ln(EXT) (ln)” value ([3]; 200 µM) was 3.11.
